Data published in patent publication US5622962A, “5α-reductase inhibitors” (priority 1995, dated 1997).
Like-named read-outs stand apart in the source and are kept apart here.

How the values were obtained:
[1] = molecular target: T1, Type I 5α-Reductase from Human Scalp (Homo sapiens, UniProt P18405); experiment: Human Type I 5α-reductase assay (conversion of [3H]-testosterone to 5α-reduced metabolites); format: biochemical
T1 construct: Scalp punch biopsies from graft recipient sites were obtained from human hair transplant procedures; from tissue; host or cells: human scalp punch biopsies (hair transplant graft recipient sites), homogenate, 100,000×g pellet
T1 sequence (P18405 1-259): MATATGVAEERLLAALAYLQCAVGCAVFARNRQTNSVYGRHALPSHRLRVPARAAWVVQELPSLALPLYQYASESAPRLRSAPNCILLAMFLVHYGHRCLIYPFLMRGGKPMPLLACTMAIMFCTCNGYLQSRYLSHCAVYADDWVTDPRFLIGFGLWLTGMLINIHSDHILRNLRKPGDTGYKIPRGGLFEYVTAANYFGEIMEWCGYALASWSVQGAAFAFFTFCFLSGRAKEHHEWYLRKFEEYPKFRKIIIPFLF

[2] = molecular target: T2, Type II 5α-Reductase from Human Prostate (Homo sapiens, UniProt P31213); experiment: Human Type II 5α-reductase assay (conversion of [3H]-testosterone to 5α-reduced metabolites); format: biochemical
T2 construct: The same procedure as above was used for preparations using tissue from prostate surgery; from tissue; host or cells: human prostate tissue from surgery, homogenate, 100,000×g pellet
T2 sequence (P31213 1-254): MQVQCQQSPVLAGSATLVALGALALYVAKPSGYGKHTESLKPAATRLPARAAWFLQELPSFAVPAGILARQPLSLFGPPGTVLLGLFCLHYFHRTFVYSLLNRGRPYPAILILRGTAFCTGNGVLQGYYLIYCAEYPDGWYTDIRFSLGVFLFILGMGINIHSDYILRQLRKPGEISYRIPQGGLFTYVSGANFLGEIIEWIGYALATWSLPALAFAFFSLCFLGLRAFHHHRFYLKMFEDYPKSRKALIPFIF

[3] = pH 7.5, 0.3 μM, 50 nM [3H]-testosterone, pH 7.5, 25°, 180 min, compared to control reaction mixtures, read-out: percent inhibition of Type I AR
[4] = pH 5.5, 0.3 μM, sodium acetate pH 5.5, 25°, 30 min, compared to control reaction mixtures, read-out: percent inhibition of Type II AR

Row | Structure (SMILES) | inhibition at 0.3 µM [1, 3] [%] | inhibition at 0.3 µM [2, 4] [%] | inhibition at 0.3 µM ([1]; pH 7.5, read-out: percent inhibition of Type I AR) [%] | inhibition at 0.3 µM ([2]; pH 5.5, read-out: percent inhibition of Type II AR) [%]
1 | CN1C(=O)CC[C@]2(C)c3ccc(C(=O)OCc4ccccc4)cc3CC[C@@H]12 [Example 144, (+)-(4aR)-(10bR)-4-methyl-8-benzyloxycarbonyl-10b-methyl-1,2,3,4,4a,5,6,10b-octahydrobenzo[f]quinolin-3-one] | 90 | 40 |  | 
2 | CN1C(=O)CC[C@]2(C)c3ccc(-c4ccccc4C#N)cc3CC[C@@H]12 [Example 125, (+)-(4aR)-(10bR)-4-methyl-8-(2-cyanophenyl)-10b-methyl-1,2,3,4,4a,5,6,10b-octahydrobenzo[f]quinolin-3-one] | 64 | 36 |  | 
3 | C[C@]12CCC(=O)N[C@@H]1CCc1cc(Sc3cnc4ccccc4c3)ccc12 [Example 18, (4aR)-(10bR)-8-(3-quinolinylthio)-10b-methyl-1,2,3,4,4a,5,6,10b-octahydrobenzo[f]quinolin-3-one] | 7 | 15 |  | 
4 | CN1C(=O)CC[C@]2(C)c3ccc(Sc4cccc5cccnc45)cc3CC[C@@H]12 [Example 110, (4aR)-(10bR)-4,10b-dimethyl-8-(8-quinolinylthio)-1,2,3,4,4a,5,6,10b-octahydrobenzo[f]quinolin-3-one] | 97 | 73 |  | 
5 | COc1cccc(Sc2ccc3c(c2)CC[C@H]2NC(=O)CC[C@]32C)c1 [Example 15, (4aR)-(10bR)-8-(3-methoxyphenylthio)-10b-methyl-1,2,3,4,4a,5,6,10b-octahydrobenzo[f]quinolin-3-one] | 23 | 39 |  | 
6 | CN1C(=O)CC[C@]2(C)c3ccc(-c4cccc([N+](=O)[O-])c4)cc3CC[C@@H]12 [Example 86, (+)-(4aR)-(10bR)-4-methyl-8-(3-nitrophenyl)-10b-methyl-1,2,3,4,4a,5,6,10b-octahydrobenzo[f]quinolin-3-one] | 66 | 51 |  | 
7 | CN1C(=O)CC[C@]2(C)c3ccc(Sc4ccc(C(F)(F)F)cn4)cc3CC[C@@H]12 [Example 155, (+)-(4aR)-(10bR)-4-methyl-8-(2-[5-trifluoromethyl]pyridylthio)-10b-methyl-1,2,3,4,4a,5,6,10b-octahydrobenzo[f]-quinolin-3-one] | 58 | 60 |  | 
8 | CN1C(=O)CC[C@]2(C)c3ccc(-c4cccc(C(F)(F)F)c4F)cc3CC[C@@H]12 [Example 208, (+)-(4aR)-(10bR)-4-methyl-8-(2-fluoro-3-trifluoromethyl-phenyl)-10b-methyl-1,2,3,4,4a,5,6,10b-octahydrobenzo[f]-quinolin-3-one] | 77 | 10 |  | 
9 | Cc1cccc(-c2ccc3c(c2)CC[C@H]2N(C)C(=O)CC[C@]32C)c1C [Example 69, (+)-(4aR)-(10bR)-4-methyl-8-(2,3-dimethylphenyl)-10b-methyl-1,2,3,4,4a,5,6,10b-octahydrobenzo[f]quinolin-3-one] | 84 | 6 |  | 
10 | CN1C(=O)CC[C@]2(C)c3ccc(-c4cccc(CNC(c5ccccc5)c5ccccc5)c4)cc3CC[C@@H]12 [Example 292, (+)-(4aR)-(10bR)-4-methyl-8-(3-diphenylmethylaminomethylphenyl)-10b-methyl-1,2,3,4,4a,5,6,10b-octahydrobenzo[f]quinolin-3-one] | 86 | 11 |  | 
11 | CN1C(=O)CC[C@]2(C)c3ccc(-c4cc(F)c([N+](=O)[O-])cc4F)cc3CC[C@@H]12 [Example 243, (+)-(4aR)-(10bR)-4-methyl-8-(2,5-difluoro-4-nitrophenyl)-10b-methyl-1,2,3,4,4a,5,6,10b-octahydrobenzo[f]quinolin-3-one] | 88 | 54 |  | 
12 | CN1C(=O)CC[C@]2(C)c3ccc(CSc4nc5ccccc5s4)cc3CC[C@@H]12 [Example 138, (4aR)-(10bR)-8-(2-benzothiazole)thiomethyl-4,10b-dimethyl-1,2,3,4,4a,5,6,10b-octahydrobenzo[f]quinolin-3-one] | 88 | 26 |  | 
13 | CN1C(=O)CC[C@]2(C)c3ccc(Cc4ccccc4)cc3CC[C@@H]12 [Example 287, (4aR)-(10bR)-8-benzyl-4,10b-dimethyl-1,2,3,4,4a, 5,6, 10b-octahydrobenzo[f]quinolin-3-one] | 82 | 37 |  | 
14 | C[C@]12CCC(=O)N[C@@H]1CCc1cc(Sc3cccc(F)c3)ccc12 [Example 16, (+)-(4aR)-(10bR)-8-(3-fluorophenylthio)-10b-methyl-1,2,3,4,4a,5,6,10b-octahydrobenzo[f]quinolin-3-one] | 14 | 28 |  | 
15 | CN1C(=O)CC[C@]2(C)c3ccc(-c4ccccc4C(F)(F)F)cc3CC[C@@H]12 [Example 43, (+)-(4aR)-(10bR)-4-methyl-8-(2-trifluoromethylphenyl)-10b-methyl-1,2,3,4,4a,5,6,10b-octahydrobenzo[f]quinolin-3-one] | 68 | 18 |  | 
16 | CN1C(=O)CC[C@]2(C)c3ccc(Sc4nc(-c5ccccc5)nc5ccccc45)cc3CC[C@@H]12 [Example 172, (+)-(4aR)-(10bR)-4-methyl-8-(2-phenyl-4-quinazolinylthio)-10b-methyl-1,2,3,4,4a,5,6,10b-octahydrobenzo[f]quinolin-3-one] | 55 | 36 |  | 
17 | CN1C(=O)CC[C@]2(C)c3ccc(Sc4ccc5cccc(F)c5n4)cc3CC[C@@H]12 [Example 174, (+)-(4aR)-(10bR)-4-methyl-8-(8-fluoro-2-quinolinylthio)-10b-methyl-1,2,3,4,4a,5,6,10b-octahydrobenzo[f]quinolin-3-one] | 82 | 80 |  | 
18 | CN1C(=O)CC[C@]2(C)c3ccc(-c4ccc([N+](=O)[O-])cc4C(F)(F)F)cc3CC[C@@H]12 [Example 133, (+)-(4aR)-(10bR)-4-methyl-8-(4-nitro-2-trifluoromethylphenyl)-10b-methyl-1,2,3,4,4a,5,6,10b-octahydrobenzo[f]-quinolin-3-one] |  |  | 77 | 34
19 | CN1C(=O)CC[C@]2(C)c3ccc(Sc4ccc5c([N+](=O)[O-])cccc5n4)cc3CC[C@@H]12 [Example 169, (+)-(4aR)-(10bR)-4-methyl-8-(5-nitro-2-quinolinylthio)-10b-methyl-1,2,3,4,4a,5,6,10b-octahydrobenzo[f]quinolin-3-one] | 75 | 61 |  | 
20 | CN1C(=O)CC[C@]2(C)c3ccc(NC(=O)c4ccc([N+](=O)[O-])cc4)cc3CC[C@@H]12 [Example 269, (4aR)-(10bR)-4,10b-dimethyl-8-(4-nitrobenzoylamino)-1,2,3,4,4a,5,6,10b-octahydrobenzo[f]quinolin-3-one] | 8 | 17 |  | 
21 | CN1C(=O)CC[C@]2(C)c3ccc(-c4ccc(F)c5ccccc45)cc3CC[C@@H]12 [Example 64, (+)-(4aR)-(10bR)-4-methyl-8-(1-[4-fluoro]naphthyl)-10b-methyl-1,2,3,4,4a,5,6,10b-octahydrobenzo[f]quinolin-3-one] | 81 | 22 |  | 
22 | CN1C(=O)CC[C@]2(C)c3ccc(-c4ccc(Oc5ccccc5)cc4)cc3CC[C@@H]12 [Example 56, (+)-(4aR)-(10bR)-4-methyl-8-(4-phenoxyphenyl)-10b-methyl-1,2,3,4,4a,5,6,10b-octahydrobenzo[f]quinolin-3-one] | 92 | 3 |  | 
23 | CN(C)c1cccc2c(S(=O)(=O)Nc3cccc(-c4ccc5c(c4)CC[C@H]4N(C)C(=O)CC[C@]54C)c3)cccc12 [Example 91, (+)-(4aR)-(10bR)-4-methyl-8-[3-([5-dimethylamino-1-naphthyl]sulfonylamino)phenyl]-10b-methyl-1,2,3,4,4a,5,6,10b-octahydrobenzo[f]quinolin-3-one] | 87 | 32 |  | 
24 | CN1C(=O)CC[C@]2(C)c3ccc(-c4c(F)c(F)c(Cl)c(F)c4F)cc3CC[C@@H]12 [Example 135, (+)-(4aR)-(10bR)-4-methyl-8-(4-chloro-2,3,5,6-tetrafluorophenyl)-10b-methyl-1,2,3,4,4a,5,6,10b-octahydrobenzo[f]-quinolin-3-one] | 92 | 31 |  | 
25 | CN1C(=O)CC[C@]2(C)c3ccc(-c4nc5c(Cl)cccc5s4)cc3CC[C@@H]12 [Example 262, (+)-(4aR)-(10bR)-4-methyl-8-(2-[4-chloro]benzothiazolyl)-10b-methyl-1,2,3,4,4a,5,6,10b-octahydrobenzo[f]quinolin-3-one] | 91 | 41 |  | 
